Test results taken from PubChem BioAssay AID1053181 (The Scripps Research Institute Molecular Screening Center, 2014).
Active and inactive are the calls of the source. No rule for the calls is given here.

molecular target: Trace amine-associated receptor 1 (Homo sapiens) (UniProt Q96RJ0); experiment: activators of human TAAR1 signalling – cell-based, fluorescence, MedChem round 2, SAR follow-up (AID 1053181); details: TAAR1-expressing cells, fluorescence agonist read-out
Sequence (Q96RJ0 whole entry, looked up, the tested form may be a part): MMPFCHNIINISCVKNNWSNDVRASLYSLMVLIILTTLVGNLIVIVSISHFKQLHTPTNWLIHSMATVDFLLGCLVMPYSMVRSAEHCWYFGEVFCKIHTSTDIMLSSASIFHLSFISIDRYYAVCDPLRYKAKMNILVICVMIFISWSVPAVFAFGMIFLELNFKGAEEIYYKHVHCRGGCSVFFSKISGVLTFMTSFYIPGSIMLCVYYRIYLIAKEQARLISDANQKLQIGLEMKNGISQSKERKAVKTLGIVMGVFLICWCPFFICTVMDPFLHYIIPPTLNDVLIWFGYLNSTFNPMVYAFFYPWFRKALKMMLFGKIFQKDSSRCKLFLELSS

Row | SMILES | EC50
1 | N#Cc1c(C(F)(F)F)cc(-c2ccc(Cl)cc2)nc1SCC(=O)Nc1ncccn1 | 0.00374 µM
2 | N#Cc1c(C(F)(F)F)cc(-c2ccc(Cl)cc2)nc1SCC(=O)N1CCCC1 | 1.07 µM
3 | Cc1ccc(C(=O)CCN2CCC(c3ccccc3)C2)cc1 (configuration not stated) | 0.672 µM
4 | N#Cc1c(C(F)(F)F)cc(-c2ccc(Cl)cc2)nc1SCC(=O)N1CCCCCC1 | > 29.9 µM (inactive)
5 | O=C(CCN1CCC(c2ccccc2)C1)c1ccccc1 (configuration not stated) | 0.765 µM
6 | COc1cc(C(=O)CCN2CCC(c3ccccc3)C2)cc(OC)c1OC (configuration not stated) | 0.419 µM
7 | CC(CN1CCCC1Cc1ccccc1)C(=O)c1ccc2c(c1)OCCO2 (configuration not stated) | 2.96 µM
